The values that follow come from US20060239927A1, “Drug for airway administration” (Kyowa Hakko Kogyo Co.,, priority 2003, published 2006).

Common to all, as to format: in vivo
The nature of data set [1]: Changes in concentration in lung tissues and in plasma upon intra-airway (intrabronchial) administration. The following applies: SD rats, 4 mg/kg; for AUC in lung tissues (concentration in lung tissues) / AUC in plasma (concentration in plasma): 0.25-4 hours; for half-life / Kp: male, rat, other: intrabronchial; for half-life: in vivo, read-out: biological half-life (T1/2) (converted); for Kp: lung tissue / plasma, read-out: ratio of concentration in lung tissues to concentration in plasma (AUC). The procedure: Male rats of SD strain (Nippon Charles Liver, Kanagawa) were bred under the condition of temperature of 23±1° C. and humidity of 55±5%, and those where body weight was 210 to 240 g at seven weeks age were used for the test. Administration of the test compound (Compound (II)) was conducted under a non-fasting condition, and during the test, solid feed (F-2; Funahashi Nojo, Chiba) and tap water were freely taken by them. Case numbers for the test was made n=2 for each stage.
According to a conventional method, the preparations of Compound (II) and RP 73401 being known as a PDE-IV inhibitor [drawing 9] [J. Med. Chem., volume 37, pages 1696-1703 (1994)] were prepared (lactose/Compound (II) or RP 73401=5/1), and each of them was suspended in 0.125 weight/volume % tyloxapol (Alevaire: registered trade mark, Nippon Shoji, Osaka). The resulting suspension was further diluted with 0.125 weight/volume % tyloxapol containing 0.25 weight/volume % of lactose (Pharmatose 325 M; registered trade mark, DMV International, Veghel, The Nethelands) (a solvent for administration), and a suspension for administration of Compound (II) or RP 73401 having an desired concentration was prepared.
Each of Compound (II) and RP 73401 was intrabronchially administered at a dose of 4 mg/kg, respectively. The solvent for administration or the suspension for administration of Compound (II) or RP 73401 was intrabronchially administered to each of right and left bronchi of an ether-anesthetized rat at a dose of 100 μL (200 μL in total) using a disposable oral sound (for mice; Fuchigami Kikai, Kyoto).
At each of stages of 0.25, 0.5, 1, 2 and 4 hours after the intrabronchial administration, abdomen of rat under a light anesthetization with ether was incised, and about 1 mL of blood was collected from a descending vena cava using a heparin-treated syringe (24 G; 1 mL; Thermo, Tokyo). Plasma was separated from the blood using a cooling centrifugal separator and stored by freezing at −20° C. until the measurement. After washing the pulmonary alveoli, the bronchus was resected to collect the lung. The wet weight of the lung was measured and the lung was stored by freezing.
To 100 μL of the plasma collected hereinabove was added a 200 μL of methanol solution of 25 μg/mL 7-[2-(3,5-dichloro-4-pyridyl)-1-oxoethyl]-4-methoxy-spiro-[1,3-benzodioxole-2,1′-cyclohexane] (an internal standard substance), and the mixture was stirred. The mixture was allowed to stand for 10 minutes on ice, followed by centrifuged, and then 200 μL of the supernatant was dried under a nitrogen flow. The resulting solid was dissolved in 200 μL of methanol and centrifuged. The resulting supernatant was subjected to centrifugal filtration using a centrifugal filtration unit ultrafree (C3GV; 0.22 μm; Nippon Millipore, Tokyo). The filtrate (100 μL) was used as a plasma sample and concentrations of Compound (II) and RP 73401 were measured using a mass spectrometer (LC/MS/MS).
In an immunotube (15 mL: Nunc, Glostrup, Denmark), to the lung prepared hereinabove was added the internal standard substance in which the concentration to the lung tissues was previously made 10 μg/g lung tissues, and the mixture was dried under a nitrogen flow. To the resulting solid was added pure water (Milli-Q SP Reagent Water System: Nippon Millipore, Tokyo) in an amount of one-fold to the wet weight followed by subjecting to homogenizing using a homogenator (Ikemoto Rika Kogyo, Tokyo). A two-fold amount of methanol was further added thereto and the mixture was homogenized, allowed to stand for 10 minutes on ice and centrifuged. The supernatant (300 μL) was taken into a microtube and centrifuged once again. The resulting supernatant (100 μL) was used as a lung sample, and concentrations of Compound (II) and RP 73401 were measured by using of a high-performance liquid chromatography (HPLC).

For data set [2], the system named is antigen-induced eosinophil infiltration. The experiment in a line: Antigen-induced eosinophil infiltration, intrabronchial administration (BALF cell count). The following applies: BN rats; for inhibitory effect to infiltration of eosinophils induced by antigen (in words): 30 to 100 μg/rat; for Number of eosinophils: BAL 24 hours after antigenic exposure, mean ± standard error. The procedure: (§1) The test was conducted in accordance with a known method [Pulmonary Pharmacology, volume 8, pages 83-89 (1995)].
(§2) Male BN rats of six weeks age (Nippon Charles Liver) were used for the test. Five to six rats were put in each plastic cage in a breeding room where the room temperature was 19 to 25° C., humidity was 30 to 70% and a daily illumination was 12 hours (from 7 a.m. to 7 p.m.), and breeding was conducted where commercially available solid feed and water were freely taken by the rats.
(§3) A suspension (1 mL) of 1 mg of ovalbumin (OVA; manufactured by Sigma) and 200 mg of aluminum hydroxide (manufactured by Wako Pure Chemical) in 1 mL of a physiological saline (manufactured by Otsuka Pharmaceutical) was subcutaneously administered to each rat, and then 0.5 mL of a suspension of killed Virdetella pertussis (2×10^10 cells/mL physiological saline solution; manufactured by Kaken Pharmaceutical) was intraperitoneally administered to conduct active sensitization. After 14 days from the active sensitization, the rats were placed in a plastic chamber (30×50×30 cm) and subjected to an antigenic exposure by nebulizing of an 1 weight/volume % solution of OVA in a physiological saline for 10 minutes. For the nebulizing, an ultrasonic nebulizer (manufactured by Omron) was used.
(§4) By the same manner as in Test Example 1, a suspension for administration of Compound (II) was prepared and intrabronchially administered to the sensitized rats.
(§5) Before 30 minutes of the antigenic exposure, the solvent for administration or the suspension for administration of Compound (II) was intrabronchially administered to the sensitized rats at a dose of 100 μL to each of right and left bronchi (200 μL in total). A group where a suspension for administration of Compound (II) was intrabronchially administered to the sensitized rat and an 1 weight/volume % OVA-physiological saline solution was nebulized, was called a Compound (II)-administered group; a group where the solvent for administration was intrabronchially administered to the sensitized rat and an 1 weight/volume % OVA-physiological saline solution was nebulized, was called a solvent-administered group; and a group where the solvent for administration was intrabronchially administered and a physiological saline was nebulized, was called a physiological saline group.
(§6) After 24 hours of the antigenic exposure or of the nebulizing with a physiological saline, a broncho-alveolar lavage (BAL) was conducted. Thus, a rat was anesthetized by an intraperitoneal administration of pentobarbital (manufactured by Dainippon Pharmaceutical) and pulmonary alveoli cavity was washed with a physiological saline via an airway cannula to prepare a broncho-alveolar lavage fluid (BALF).
(§7) The BALF was centrifuged under the condition of 950 rpm (200×g) at 4° C. for 10 minutes, the precipitated cells were suspended in 1 mL of a physiological saline, and total leukocyte numbers were measured by an automatic blood corpuscle counter (manufactured by Nippon Koden). Smeared samples of cells were also prepared using Cytospin III (manufactured by Shandon). After the smeared sample was subjected to a Giemsa staining, 500 cells were observed under an optical microscope, numbers of eosinophils and neutrophils were counted and their ratios were calculated. Number of eosinophils and number of neutrophils were calculated by multiplying the total leukocyte numbers by each ratio of number of eosinophils and number of neutrophils, respectively. Inhibition rate (%) to increases of number of eosinophils and number of neutrophils respectively in BALF was calculated according to the following. [formula]
(§8) A: Numbrer of eosinophils or neutrophils in the solvent-administering group
(§9) B: Numbrer of eosinophils or neutrophils in the Compound (II)-administered group
(§10) C: Numbrer of eosinophils or neutrophils in the physiological saline group

The subject of another data set is gastric excretion. In words: Inhibitory activity for gastric excretion by intrabronchial administration (Phenol Red method). The following applies: SD rats, intrabronchial 30 minutes before P-C solution, 30 to 100 μg/rat. The procedure: Male SD rats (six weeks age; body weight upon purchase was 180 to 200 g; Nippon SLC) were used for the test. The rats were bred in an animal room where room temperature was 23±1° C., humidity was 55±5% and solid feed and drinking water were made freely taken by them.
Suspensions for administration of Compound (II) and RP 73401 were prepared by the same manner as in Test Example 1 and each of them was subjected to an intrabronchial administration.
The rats (body weight used for the experiment: about 200 g) were fasted on the day before the test (before about 24 hours) and were bred only by drinking water. A test for gastric excretion was conducted according to a Phenol Red method [Arch. Int. […]
A 1.5 mL of an 1.5 weight/volume % carboxymethyl cellulose (CMC) solution containing a 0.05 weight/volume % Phenol Red (hereinafter, referred to as P—C solution) was orally administered to the rats where one group comprised six rats. […] The extirpated stomach was incised in 40 mL of a 0.1 mol/L aqueous NaOH solution to recover the P—C solution and the amount of Phenol Red remaining in the stomach was measured. […] The gastric excretion ratio (%) in the agent-administered group or the solvent-administered group was calculated by the following equation (1) while the inhibition rate (%) of the agent to the gastric excretion was calculated from the gastric excretion ratio using the following equation (2). […]

Data set [3] deals with antigen-induced neutrophil infiltration. The experiment in a line: Antigen-induced neutrophil infiltration, intrabronchial administration (BALF cell count). The settings on record: BN rats; for inhibitory effect to infiltration of neutrophils induced by antigen (in words): 30 to 100 μg/rat; for Number of neutrophils: BAL 24 hours after antigenic exposure, mean ± standard error. On the procedure: as §1, §2, §3, §4, §5, §6, §7, §8, §9, §10

Turning to `COc1ccc(C(=O)Nc2c(Cl)cncc2Cl)cc1OC1CCCC1` [RP 73401, reference compound], in data set [1], the AUC in lung tissues (concentration in lung tissues) was found to be 248 µg·h/mL, the AUC in plasma (concentration in plasma) came to 0.826 µg·h/mL, the half-life was 20.5 min and the Kp was 300. For the same compound, the “inhibitory effect to infiltration of eosinophils induced by antigen (in words)” value in data set [2] is reported as “significant inhibitory activity”. In the data set on gastric excretion, the “inhibitory effect to gastric excretion (in words)” value is on record as “a dose-depending inhibitory effect to gastric excretion was observed”. The “inhibitory effect to infiltration of neutrophils induced by antigen (in words)” value in data set [3] is on record as “significant inhibitory activity”.

For the compound `COc1ccc(C(=O)Cc2c(Cl)cncc2Cl)c2c1OC1(CCCC1)O2` [Compound (II), 7-[2-(3,5-dichloro-4-pyridyl)-1-oxoethyl]-4-methoxy-spiro-[1,3-benzodioxole-2,1′-cyclopentane]], in data set [1], the AUC in lung tissues (concentration in lung tissues) was found to be 3640 µg·h/mL, the AUC in plasma (concentration in plasma) is 0.733 µg·h/mL, the half-life was 229 min and the Kp stood at 4970. For the same compound, in data set [2] (30 μg/rat), the “Inhibition rate to increase of number of eosinophils in BALF” value stood at 50% and the Number of eosinophils was 0.09 ± 0.03 10^6/BALF. For the same compound, in data set [2] (100 μg/rat), the “Inhibition rate to increase of number of eosinophils in BALF” value is reported as 86% and the Number of eosinophils is on record as 0.04 ± 0.01^## 10^6/BALF. Besides, the “inhibitory effect to infiltration of eosinophils induced by antigen (in words)” value in data set [2] is given as “inhibited”. In the data set on gastric excretion, the “inhibitory effect to gastric excretion (in words)” value was “no significant inhibitory effect to gastric excretion was observed”. In addition, in data set [3] (30 μg/rat), the “Inhibition rate to increase of number of neutrophils in BALF” value came out at 56% and the Number of neutrophils is on record as 0.64 ± 0.14 10^6/BALF. For the same compound, in data set [3] (100 μg/rat), the “Inhibition rate to increase of number of neutrophils in BALF” value is 80% and the Number of neutrophils is 0.43 ± 0.06^# 10^6/BALF. The “inhibitory effect to infiltration of neutrophils induced by antigen (in words)” value in data set [3] is recorded as “inhibited”.
